Measurements from patent US20100160255A1, “SPIRO-CYCLIC COMPOUND” (Takeda Pharmaceutical Company Limited, priority 2005, published 2010).
Where two headings read alike, the source gives them in different places.

Key:
human ACC2 = target: T1, human ACC2 (Homo sapiens, UniProt O00763); test: ACC2 inhibitory activity (malachite green absorbance assay, recombinant ACC2(Nd)); assay type: biochemical
T1 construct: made in house; host or cells: SF-9 insect cells, recombinant baculovirus BAC-ACC2(Nd)
Description: The ACC2 inhibitory activity of the compound of the present invention was evaluated by the following method.
(§1) Human ACC2 gene was cloned by PCR using human skeletal muscle cDNA library (Clontech) as a template, and Primer 1 and Primer 2 shown below. Primer 1 and Primer 2 were prepared by adding recognition sequence of restriction enzymes SalI and XbaI based on the information of the base sequence (Genbank Accession U89344) of human ACC2 gene.
(§2) PCR was performed using Pyrobest DNA polymerase (TAKARA BIO INC.). The obtained PCR product was cloned to pT7 Blue vector (Novagen) which was, after confirmation of the base sequence, digested with restriction enzymes SalI and XbaI. The obtained DNA fragment was inserted into pFAST-BacHTa (Invitrogen) digested with restriction enzymes SalI and XbaI to give expression plasmid ACC2/pFAST-BacHTa.
A plasmid for expression of ACC2 free of mitochondrial targeting sequence was prepared by PCR using the expression plasmid as a template, and Primer 3 and Primer 4 shown below.
as §2, with “AflII.” for “XbaI.”, “AflII” for “XbaI”, “ACC2mito7/pFAST-BacHTa.” for “ACC2/pFAST-BacHTa.”
Using the expression plasmid and BAC-TO-BAC Baculovirus Expression System (Invitrogen), virus stock BAC-ACC2 of recombinant Baculovirus (N terminal deletion (hereinafter Nd)) was prepared.
SF-9 cells (Invitrogen) were sown at 0.5×10^6 cells/mL to insect cell culture medium (2 L, Sf-900II SFM medium (Invitrogen) containing 10% fetal bovine serum (Trace), 50 mg/L gentamicin (Invitrogen) and 0.1% Pluronic F-68 (Invitrogen)), and shaking culture was performed using a Wave Bioreactor (Wave) under the conditions of 27° C., 20 rpm, rocking angle of 6° and oxygen concentration of 30%.
On day 4 of the culture, 3 L of an insect cell culture medium was added, the rocking angle was set to 8°, and the cells were further cultured. On day 5 of the culture, the recombinant Baculovirus BAC-ACC2(Nd) (100 mL) was added, 5 L of the insect cell culture medium was further added, the rocking angle was set to 11°, and the cells were cultured for 3 days. The culture medium was centrifuged at 1000×g for 10 min to give virus-infected cells. The infected cells were washed with phosphate buffered saline (Invitrogen) and centrifuged under the same conditions, and the obtained cells were cryopreserved at −80° C.
The cryopreserved cells were thawed in ice, suspended in 25 mM HEPES buffer (900 mL, pH 7.5) containing 10% Glycerol, 0.13 M NaCl, 1 mM EDTA, 25 mM sodium β-glycerophosphate, 1 mM sodium orthovanadate, added with Complete Protease Inhibitor (Boehringer). The obtained suspension was homogenized 3 times with a Polytron homogenizer (Kinematica) at 20,000 rpm for 30 seconds. The obtained cell disrupt solution was clarified by centrifugation at 31000×g for 60 min and filtrated using a 0.45 μm filter. The filtrate was passed through a column packed with Ni-NTA Super Flow Gel (QIAGEN, 60 mL) at a flow rate of about 5 mL/min. The column was washed with buffer A (50 mM HEPES containing 0.3M NaCl, pH 7.5), further washed with buffer A containing 20 mM Imidazole, and eluted with buffer A containing 100 mM Imidazole. The eluate was concentrated with Vivaspin 20 (Vivascience) having a molecular weight cut off of 30 K. The obtained concentrate was dialyzed against 50 mM HEPES (pH7.5) containing 10 mM MgCl2, 2 mM dithiothreitol, 10 mM tripotassium citrate and 0.3M NaCl. The dialysate was filtered through a 0.22 μm filter to give ACC2(Nd). The obtained ACC2(Nd) was cryopreserved at −80° C. […]

human ACC1 = target: T2, human ACC1 (Homo sapiens, UniProt Q13085); test: ACC1 inhibitory activity (malachite green absorbance assay, recombinant enzyme); assay type: biochemical
T2 construct: made in house; host or cells: SF-9 insect cells, recombinant baculovirus BAC-ACC1
Description: The ACC1 inhibitory activity of the compound of the present invention was evaluated by the following method.
as §1, with “ACC1” for “ACC2”, “liver” for “skeletal muscle”, “NotI” for “XbaI”, “U19822)” for “U89344)”
as §2, with “NotI.” for “XbaI.”, “pFAST-BacHTc” for “pFAST-BacHTa”, “NotI” for “XbaI”, “ACC1/pFAST-BacHTc.” for “ACC2/pFAST-BacHTa.”
Using the expression plasmid and BAC-TO-BAC Baculovirus Expression System (Invitrogen), virus stock BAC-ACC1 of recombinant Baculovirus was prepared.
SF-9 cells (Invitrogen) were sown at 1×10^6 cells/mL to insect cell culture medium (1 L, Sf-900II SFM medium (Invitrogen) containing 10% fetal bovine serum (Trace), 50 mg/L gentamicin (Invitrogen) and 0.1% Pluronic F-68 (Invitrogen)), and shaking culture was performed using a 2 L volume Erlenmeyer flask at 27° C., 100 rpm.
After culturing for 24 hr, the recombinant Baculovirus BAC-ACC1 (10 mL) was added, and the mixture was further cultured for 3 days. The culture medium was centrifuged at 1000×g for 5 min to give virus-infected cells. The infected cells were washed with phosphate buffered saline (Invitrogen) and centrifuged under the same conditions, and the obtained cells were cryopreserved at −80° C.
The cryopreserved cells were thawed in ice, suspended in 25 mM HEPES buffer (100 mL, pH 7.5) containing 10% Glycerol, 0.13 M NaCl, 1 mM EDTA, 25 mM sodium β-glycerophosphate, 1 mM sodium orthovanadate, added with Complete Protease Inhibitor (Boehringer). The obtained suspension was homogenized 3 times with a Polytron homogenizer (Kinematica) at 20,000 rpm for 30 seconds. The obtained cell disrupt solution was clarified by centrifugation at 185700×g for 50 min and filtrated using a 0.45 μm filter. The filtrate was passed through a column packed with Ni-NTA Super Flow Gel (QIAGEN, 12 mL) at a flow rate of about 5 mL/min. The column was washed with buffer A (50 mM HEPES containing 0.3M NaCl, pH 7.5), further washed with buffer A containing 20 mM Imidazole, and eluted with buffer A containing 100 mM Imidazole. The eluate was concentrated with Vivaspin 20 (Vivascience) having a molecular weight cut off of 30 K. The obtained concentrate was dialyzed using Sephadex G-25 (Amersham Bioscience K.K., 358 mL) equilibrated with 50 mM HEPES (pH7.5) containing 10 mM MgCl2, 2 mM dithiothreitol, 10 mM tripotassium citrate and 0.3M NaCl. The dialysate was concentrated with Vivaspin 20 (Vivascience) having a molecular weight cut off of 30 K and the concentrate was filtered through a 0.22 μm filter to give ACC1. The obtained ACC1 was cryopreserved at −80° C.
ACC1 (0.93 mg/ml) obtained in (2) above was diluted to a concentration of 8 μg/ml with an enzyme reaction buffer (50 mM HEPES (pH7.5), 10 mM MgCl2, 10 mM tripotassium citrate, 2 mM dithiothreitol, 0.75 mg/ml fatty acid free BSA), and added to each well of a 384 well assay plate (Nunc 265196) by 10 μl. […]

[1] = Table 9, recombinant human ACC2(Nd), N terminal deletion, 30° C., absorbance 620 nm, read-out: IC50 (ACC2 inhibitory activity)
[2] = Table 8, recombinant human ACC1, 30° C., absorbance 620 nm, read-out: IC50 (ACC1 inhibitory activity)
[3] = Experimental Example 3, same manner as Experimental Example 1, read-out: IC50 values (ACC1 inhibitory activity)

T1 sequence (O00763 117-2458 limits assumed): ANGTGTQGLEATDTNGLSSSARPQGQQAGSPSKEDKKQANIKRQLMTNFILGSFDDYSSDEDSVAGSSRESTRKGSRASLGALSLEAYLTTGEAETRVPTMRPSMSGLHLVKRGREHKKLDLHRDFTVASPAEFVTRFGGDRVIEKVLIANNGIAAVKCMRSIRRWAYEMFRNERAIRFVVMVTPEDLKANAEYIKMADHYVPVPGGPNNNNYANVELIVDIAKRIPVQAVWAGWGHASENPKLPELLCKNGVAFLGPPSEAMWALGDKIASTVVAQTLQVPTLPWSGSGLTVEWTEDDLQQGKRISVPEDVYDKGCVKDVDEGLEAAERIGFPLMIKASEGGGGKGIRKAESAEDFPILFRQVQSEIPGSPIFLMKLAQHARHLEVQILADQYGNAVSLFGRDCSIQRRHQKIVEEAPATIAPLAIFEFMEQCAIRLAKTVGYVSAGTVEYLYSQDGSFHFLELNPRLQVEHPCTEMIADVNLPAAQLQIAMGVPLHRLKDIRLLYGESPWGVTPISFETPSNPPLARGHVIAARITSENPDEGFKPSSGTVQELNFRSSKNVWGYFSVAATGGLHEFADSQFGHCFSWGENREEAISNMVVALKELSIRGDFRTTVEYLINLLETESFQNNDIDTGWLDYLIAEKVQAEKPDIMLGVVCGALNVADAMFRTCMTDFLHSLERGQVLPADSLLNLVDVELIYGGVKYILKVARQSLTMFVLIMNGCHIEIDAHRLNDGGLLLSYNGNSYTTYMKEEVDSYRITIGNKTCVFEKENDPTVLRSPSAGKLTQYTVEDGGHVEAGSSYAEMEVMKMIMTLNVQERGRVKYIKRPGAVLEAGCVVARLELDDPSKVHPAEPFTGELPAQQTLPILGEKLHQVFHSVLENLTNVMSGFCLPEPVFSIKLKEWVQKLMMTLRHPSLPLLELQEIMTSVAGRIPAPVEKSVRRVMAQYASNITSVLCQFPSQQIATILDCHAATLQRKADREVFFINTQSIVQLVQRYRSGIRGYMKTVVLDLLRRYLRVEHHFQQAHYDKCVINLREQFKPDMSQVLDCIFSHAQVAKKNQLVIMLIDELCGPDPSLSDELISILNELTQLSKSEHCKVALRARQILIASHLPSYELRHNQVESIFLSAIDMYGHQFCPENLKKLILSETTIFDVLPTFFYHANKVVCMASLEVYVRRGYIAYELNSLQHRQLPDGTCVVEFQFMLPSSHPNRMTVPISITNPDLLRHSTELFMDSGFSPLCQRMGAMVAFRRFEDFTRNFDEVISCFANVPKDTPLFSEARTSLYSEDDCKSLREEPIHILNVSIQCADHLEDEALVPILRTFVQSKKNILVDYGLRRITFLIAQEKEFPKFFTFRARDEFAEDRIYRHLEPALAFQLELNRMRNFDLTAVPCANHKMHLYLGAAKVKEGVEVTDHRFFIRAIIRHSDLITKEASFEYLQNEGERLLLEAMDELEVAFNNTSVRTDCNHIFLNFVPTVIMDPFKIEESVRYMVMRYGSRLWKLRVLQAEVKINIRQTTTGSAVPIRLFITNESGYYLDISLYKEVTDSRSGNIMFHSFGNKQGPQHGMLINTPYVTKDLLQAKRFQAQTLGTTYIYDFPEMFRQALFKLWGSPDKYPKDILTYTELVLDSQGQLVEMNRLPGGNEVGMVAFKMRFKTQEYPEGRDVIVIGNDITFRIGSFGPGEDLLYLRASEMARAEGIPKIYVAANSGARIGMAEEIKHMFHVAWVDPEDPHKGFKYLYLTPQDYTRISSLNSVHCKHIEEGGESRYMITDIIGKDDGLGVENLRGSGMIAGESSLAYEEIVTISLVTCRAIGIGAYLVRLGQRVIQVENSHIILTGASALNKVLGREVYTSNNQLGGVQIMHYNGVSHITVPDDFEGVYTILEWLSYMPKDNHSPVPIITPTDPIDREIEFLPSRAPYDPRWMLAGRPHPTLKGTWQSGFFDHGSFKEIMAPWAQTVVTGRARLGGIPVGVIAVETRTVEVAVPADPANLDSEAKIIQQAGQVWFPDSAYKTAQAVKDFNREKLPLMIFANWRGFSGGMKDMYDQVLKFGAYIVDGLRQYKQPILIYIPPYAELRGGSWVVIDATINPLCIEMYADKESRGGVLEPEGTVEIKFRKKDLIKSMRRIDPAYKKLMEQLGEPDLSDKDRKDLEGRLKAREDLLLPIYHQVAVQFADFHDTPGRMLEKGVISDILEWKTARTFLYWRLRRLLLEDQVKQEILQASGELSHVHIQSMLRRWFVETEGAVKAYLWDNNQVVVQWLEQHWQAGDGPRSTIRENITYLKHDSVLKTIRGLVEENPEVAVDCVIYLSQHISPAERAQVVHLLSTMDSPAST

Structure (SMILES)	IC50 (human ACC2; [1])	IC50 (human ACC1; [2])	IC50 (human ACC2; Experimental Example 4, same manner as Experimental Example 2, read-out: IC50 values (ACC2 inhibitory activity))	IC50 (human ACC1; [3])
CCNC(=O)Nc1sc2ccccc2c1C(=O)N1CCC(N2CCCC3(C2)OC(=O)N(CC)C3=O)CC1 (racemic) [Example 228, N-ethyl-N′-(3-{[4-(3-ethyl-2,4-dioxo-1-oxa-3,7-diazaspiro[4.5]dec-7-yl)piperidin-1-yl]carbonyl}-1-benzothien-2-yl)urea]	41 nM	190 nM	–	–
CCNC(=O)Nc1sc2ccccc2c1C(=O)N1CCC(N2CCCC3(C2)N=C(C)N(CC)C3=O)CC1 (racemic) [Example 233, 1-ethyl-3-(3-{[4-(3-ethyl-2-methyl-4-oxo-1,3,7-triazaspiro[4.5]dec-1-en-7-yl)piperidin-1-yl]carbonyl}-1-benzothien-2-yl)urea]	17 nM	110 nM	–	–
CCN1C(=O)CC2(CCCN(C3CCN(C(=O)c4c(NC(N)=O)sc5ccccc45)CC3)C2)C1=O (racemic) [Example 240, 1-(3-{[4-(2-ethyl-1,3-dioxo-2,7-diazaspiro[4.5]dec-7-yl)piperidin-1-yl]carbonyl)-1-benzothien-2-yl)urea]	23 nM	350 nM	–	–
CCNC(=O)Nc1sc2ccccc2c1C(=O)N1CCC(N2CCCC3(CCN(CC)C3=O)C2)CC1 (racemic) [Example 321, N-ethyl-N′-(3-{[4-(2-ethyl-1-oxo-2,7-diazaspiro[4.5]dec-7-yl)piperidin-1-yl]carbonyl}-1-benzothien-2-yl)urea]	34 nM	360 nM	–	–
CCNC(=O)Nc1sc2ccccc2c1C(=O)N1CCC(N2CCCC3(C2)CC(C)(C)OC3=O)CC1 (single isomer, unassigned) [Example 319, N-(3-{[4-(3,3-Dimethyl-1-oxo-2-oxa-7-azaspiro[4.5]dec-7-yl)piperidin-1-yl]carbonyl}-1-benzothien-2-yl)-N′-ethylurea]	5 nM	30 nM	≤ 10 nM	≤ 100 nM
CCN1CCC2(CCCN(C3CCN(C(=O)c4c5ccccc5cc5ccccc45)CC3)C2)C1=O (stereo not shown) [Example 1, 7-[1-(9-anthrylcarbonyl)piperidin-4-yl]-2-ethyl-2,7-diazaspiro[4.5]decan-1-one]	140 nM	1900 nM	–	–
CCNC(=O)Nc1sc2ccccc2c1C(=O)N1CCC(N2CCNC3(C2)CC(C)(C)OC3=O)CC1 (stereo not shown) [Example 184, 1-(3-{[4-(3,3-dimethyl-1-oxo-2-oxa-6,9-diazaspiro[4.5]dec-9-yl)piperidin-1-yl]carbonyl}-1-benzothien-2-yl)-3-ethylurea]	–	–	–	≤ 100 nM
CCNC(=O)Nc1sc2ccccc2c1C(=O)N1CCC(N2CCCC3(CC(C)N(CCO)C3=O)C2)CC1 (stereo not shown) [Example 187, 1-ethyl-3-[3-({4-[2-(2-hydroxyethyl)-3-methyl-1-oxo-2,7-diazaspiro[4.5]dec-7-yl]piperidin-1-yl}carbonyl)-1-benzothien-2-yl]urea]	–	–	–	≤ 100 nM
CC1(C)CC2(CCCN(C3CCN(C(=O)c4c(NC(N)=O)sc5ccccc45)CC3)C2)C(=O)O1 (stereo not shown) [Example 290, N-(3-{[4-(3,3-dimethyl-1-oxo-2-oxa-7-azaspiro[4.5]dec-7-yl)piperidin-1-yl]carbonyl}-1-benzothien-2-yl)urea]	–	–	–	≤ 100 nM
Cc1c(C(=O)OC(C)(C)C)sc(NC(N)=O)c1C(=O)N1CCC(N2CCCC3(C2)CC(C)(C)OC3=O)CC1 (stereo not shown) [Example 291, tert-butyl 5-[(aminocarbonyl)amino]-4-{[4-(3,3-dimethyl-1-oxo-2-oxa-7-azaspiro[4.5]dec-7-yl)piperidin-1-yl]carbonyl}-3-methylthiophene-2-carboxylate]	–	–	–	≤ 100 nM

Results, then the compound that gave them:

IC50 (human ACC2; [1])	IC50 (human ACC1; [2])	IC50 (human ACC2; Experimental Example 4, same manner as Experimental Example 2, read-out: IC50 values (ACC2 inhibitory activity))	IC50 (human ACC1; [3])	Structure (SMILES)
–	–	–	≤ 100 nM	CNC(=O)Nc1sc2ccccc2c1C(=O)N1CCC(N2CCCC3(C2)CC(C)(C)OC3=O)CC1 (stereo not shown) [Example 324, N-(3-{[4-(3,3-dimethyl-1-oxo-2-oxa-7-azaspiro[4.5]dec-7-yl)piperidin-1-yl]carbonyl}-1-benzothien-2-yl)-N′-methylurea]
–	–	–	≤ 100 nM	CCNC(=O)Nc1sc2ccccc2c1C(=O)N1CCC(N2CCCC3(C2)OC(=O)N(C(C)(C)C)C3=O)CC1 (stereo not shown) [Example 350, N-(3-{[4-(3-tert-butyl-2,4-dioxo-1-oxa-3,7-diazaspiro[4.5]dec-7-yl)piperidin-1-yl]carbonyl}-1-benzothien-2-yl)-N′-ethylurea]
–	–	–	≤ 100 nM	CCNC(=O)Nc1sc2ccccc2c1C(=O)N1CCC(N2CCCC3(C2)N=C(CC)N(CC)C3=O)CC1 (stereo not shown) [Example 354, N-(3-{[4-(2,3-diethyl-4-oxo-1,3,7-triazaspiro[4.5]dec-1-en-7-yl)piperidin-1-yl]carbonyl}-1-benzothien-2-yl)-N′-ethylurea]
–	–	–	≤ 100 nM	CCN1C(=O)C2(CCCN(C3CCN(C(=O)c4c(NC(N)=O)sc5ccccc45)CC3)C2)N=C1C(C)C (stereo not shown) [Example 357, N-(3-{[4-(3-ethyl-2-isopropyl-4-oxo-1,3,7-triazaspiro[4.5]dec-1-en-7-yl)piperidin-1-yl]carbonyl}-1-benzothien-2-yl)urea]
